# Data published in patent publication US20240368150A1 (Hoffmann-La Roche Inc., priority 2021, published 2024).
# Like-named read-outs stand apart in the source and are kept apart here.
# What was measured:
# primary human T-cells [1] = test system: primary human T-cells
# primary human T-cells [2] = experiment: Proliferation assay after 5 days (CellTiter-Glo, CD3 stimulation; PBS counter screen); type: cell-based; conditions: T-cell, 120 h, CD3 stimulation; for Emax: 5 days, normalized to reference compound A1 as stimulator control = 100%, DMSO neutral control, read-out: Emax proliferation (% activation); for EC50: primary human T-cells, CellTiter-Glo after 5 days, EC50 of fitted sigmoidal curve, read-out: Tcell Proliferation CD3 EC50
# Outline: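 Primary human T-cells, with or without CD3 stimulation, exposed to compounds for 5 days; cell number read as ATP by CellTiter-Glo 2.0 luminescence after 45 min equilibration and 15 min reagent incubation at room temperature. Compounds activating unstimulated cells or reducing viability were flagged.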
EC50 (primary human T-cells [1]),SMILES,Emax (primary human T-cells [2]; Homo sapiens),EC50 (primary human T-cells [2]; Homo sapiens),EC50 (primary human T-cells [2])
110 nM,"N[C@H]1CS(=O)(=O)c2cc(F)c(-c3nnc(N4CC5(C4)CC(F)(F)C5)o3)cc2N(Cc2ccc(Cl)cc2)C1=O [Example 479, (3R)-3-amino-5-[(4-chlorophenyl)methyl]-7-[5-(6,6-difluoro-2-azaspiro[3.3]heptan-2-yl)-1,3,4-oxadiazol-2-yl]-8-fluoro-1,1-dioxo-2,3-dihydro-1λ^6,5-benzothiazepin-4-one]",127%,439 nM,–
< 15.1 nM,"N[C@H]1CS(=O)(=O)c2cc(F)c(-c3nnc(N4CCC(F)(F)CC4)o3)cc2N(Cc2ccc(Cl)cc2)C1=O [Example 480, (3R)-3-amino-5-[(4-chlorophenyl)methyl]-7-[5-(4,4-difluoro-1-piperidyl)-1,3,4-oxadiazol-2-yl]-8-fluoro-1,1-dioxo-2,3-dihydro-1λ^6,5-benzothiazepin-4-one]",152%,162 nM,–
1880 nM,"N[C@H]1CS(=O)(=O)c2cc(F)c(-c3nnc(NC4CC4)o3)cc2N(Cc2ccc(Cl)cc2)C1=O [Example 481, (3R)-3-amino-5-[(4-chlorophenyl)methyl]-7-[5-(cyclopropylamino)-1,3,4-oxadiazol-2-yl]-8-fluoro-1,1-dioxo-2,3-dihydro-1λ^6,5-benzothiazepin-4-one]",89%,3050 nM,–
2600 nM,"N[C@H]1CS(=O)(=O)c2cc(F)c(-c3nnc(NC4(CCO)CCCCC4)o3)cc2N(Cc2ccc(Cl)cc2)C1=O [Example 483, (3R)-3-amino-5-[(4-chlorophenyl)methyl]-8-fluoro-7-[5-[[l-(2-hydroxyethyl)cyclohexyl]amino]-1,3,4-oxadiazol-2-yl]-1,1-dioxo-2,3-dihydro-1λ^6,5-benzothiazepin-4-one]",79%,1540 nM,–
1890 nM,CC(O)(CNc1nnc(-c2cc3c(cc2F)S(=O)(=O)C[C@H](N)C(=O)N3Cc2ccc(Cl)cc2)o1)C(F)(F)F (stereo partly drawn) [Example 484],51%,1060 nM,–
8130 nM,"N[C@H]1CS(=O)(=O)c2cc(F)c(-c3nnc(N4CCC(F)(F)C(CO)C4)o3)cc2N(Cc2ccc(Cl)cc2)C1=O (stereo partly drawn) [Example 485, (3R)-3-amino-5-[(4-chlorophenyl)methyl]-7-[5-[4,4-difluoro-3-(hydroxymethyl)-1-piperidyl]-1,3,4-oxadiazol-2-yl]-8-fluoro-1,1-dioxo-2,3-dihydro-1λ^6,5-benzothiazepin-4-one]",98%,868 nM,–
6690 nM,"CC(C)(C#N)Nc1nnc(-c2cc3c(cc2F)S(=O)(=O)C[C@H](N)C(=O)N3Cc2ccc(Cl)cc2)o1 [Example 486, 2-methyl-2-[[5-[(3R)-3-amino-5-[(4-chlorophenyl)methyl]-8-fluoro-1,1,4-trioxo-2,3-dihydro-1λ^6,5-benzothiazepin-7-yl]-1,3,4-oxadiazol-2-yl]amino]propanenitrile]",106%,2680 nM,–
8600 nM,"N[C@H]1CS(=O)(=O)c2cc(F)c(-c3nnc(NCC(F)(F)F)o3)cc2N(Cc2ccc(Cl)cc2)C1=O [Example 487, (3R)-3-amino-5-[(4-chlorophenyl)methyl]-8-fluoro-1,1-dioxo-7-[5-(2,2,2-trifluoroethylamino)-1,3,4-oxadiazol-2-yl]-2,3-dihydro-1λ^6,5-benzothiazepin-4-one]",112%,1190 nM,–
4060 nM,"N[C@H]1CS(=O)(=O)c2cc(F)c(-c3nnc(NC4CNCC(F)(F)C4)o3)cc2N(Cc2ccc(Cl)cc2)C1=O (stereo partly drawn) [Example 489, (3R)-3-amino-5-[(4-chlorophenyl)methyl]-7-[5-[(5,5-difluoro-3-piperidyl)amino]-1,3,4-oxadiazol-2-yl]-8-fluoro-1,1-dioxo-2,3-dihydro-1λ^6,5-benzothiazepin-4-one]",55%,7240 nM,–
3760 nM,"COC(=O)N1CC(Nc2nnc(-c3cc4c(cc3F)S(=O)(=O)C[C@H](N)C(=O)N4Cc3ccc(Cl)cc3)o2)CC(F)(F)C1 (stereo partly drawn) [Example 490, methyl 3,3-difluoro-5-[[5-[(3R)-3-amino-5-[(4-chlorophenyl)methyl]-8-fluoro-1,1,4-trioxo-2,3-dihydro-1λ^6,5-benzothiazepin-7-yl]-1,3,4-oxadiazol-2-yl]amino]piperidine-1-carboxylate]",72%,6050 nM,–
443 nM,"CC1(C)COCCN1c1nnc(-c2cc3c(cc2F)S(=O)(=O)C[C@H](N)C(=O)N3Cc2ccc(Cl)cc2)o1 [Example 491, (3R)-3-amino-5-[(4-chlorophenyl)methyl]-7-[5-(3,3-dimethylmorpholin-4-yl)-1,3,4-oxadiazol-2-yl]-8-fluoro-1,1-dioxo-2,3-dihydro-1λ^6,5-benzothiazepin-4-one]",56%,142 nM,–
638 nM,"N[C@H]1CS(=O)(=O)c2cc(F)c(-c3nnc(NC4CCCN(CC(F)(F)F)C4)o3)cc2N(Cc2ccc(Cl)cc2)C1=O (stereo partly drawn) [Example 492, (3R)-3-amino-5-[(4-chlorophenyl)methyl]-8-fluoro-1,1-dioxo-7-[5-[[1-(2,2,2-trifluoroethyl)-3-piperidyl]amino]-1,3,4-oxadiazol-2-yl]-2,3-dihydro-1λ^6,5-benzothiazepin-4-one]",88%,671 nM,–
1280 nM,"CC(Nc1nnc(-c2cc3c(cc2F)S(=O)(=O)C[C@H](N)C(=O)N3Cc2ccc(Cl)cc2)o1)C1CC(F)(F)C1 (stereo partly drawn) [Example 493, (3R)-3-amino-5-[(4-chlorophenyl)methyl]-7-[5-[1-(3,3-difluorocyclobutyl)ethylamino]-1,3,4-oxadiazol-2-yl]-8-fluoro-1,1-dioxo-2,3-dihydro-1λ^6,5-benzothiazepin-4-one]",102%,982 nM,–
1200 nM,"CC(C)(CC(F)(F)F)Nc1nnc(-c2cc3c(cc2F)S(=O)(=O)C[C@H](N)C(=O)N3Cc2ccc(Cl)cc2)o1 [Example 494, (3R)-3-amino-5-[(4-chlorophenyl)methyl]-8-fluoro-1,1-dioxo-7-[5-[(3,3,3-trifluoro-1,1-dimethyl-propyl)amino]-1,3,4-oxadiazol-2-yl]-2,3-dihydro-1λ^6.5-benzothiazepin-4-one]",118%,464 nM,–
1720 nM,"C#CC1(Nc2nnc(-c3cc4c(cc3F)S(=O)(=O)C[C@H](N)C(=O)N4Cc3ccc(Cl)cc3)o2)CCCCC1 [Example 497, (3R)-3-amino-5-[(4-chlorophenyl)methyl]-7-[5-[(1-ethynylcyclohexyl)amino]-1,3,4-oxadiazol-2-yl]-8-fluoro-1,1-dioxo-2,3-dihydro-1λ^6,5-benzothiazepin-4-one]",125%,874 nM,–

SMILES,EC50 (primary human T-cells [1]),Emax (primary human T-cells [2]; Homo sapiens),EC50 (primary human T-cells [2]; Homo sapiens),EC50 (primary human T-cells [2])
"CC(Nc1nnc(-c2cc3c(cc2F)S(=O)(=O)C[C@H](N)C(=O)N3Cc2ccc(Cl)cc2)o1)C(F)(F)F (stereo partly drawn) [Example 498, (3R)-3-amino-5-[(4-chlorophenyl)methyl]-8-fluoro-1,1-dioxo-7-[5-[(2,2,2-trifluoro-1-methyl-ethyl)amino]-1,3,4-oxadiazol-2-yl]-2,3-dihydro-1λ^6,5-benzothiazepin-4-one]",724 nM,103%,–,1080 nM
